We go through two molecules from patent US20140007502A1, “METHODS AND COMPOSITIONS FOR INCREASED PLANT YIELD” (priority 2011, published 2014).

Assay type in all cases: in vivo
Assay [1] deals with maize variety DeliTop (NK Seeds). As to the kind of experiment: Maize field trial yield, Niedersachsen, Germany (Example 6). Conditions: treatment at BBCH 14, 184 days. From the text:
(§1) Plots of suitable size in Valais, Switzerland were planted with maize hybrid COOLER™ (NK Seeds) at a conventional amount of seeds per hectare (in this example, 99,000) and at an increased density amount of seeds per hectare (in this example, 125,000).
(§2) Each density area was divided into four separate treatments—an untreated control, treatment with trinexapac ethyl (0.6 l/Ha of MODDUS™ 250EC which has 250 g trinexapac ethyl per liter) at BBCH 14, treatment with azoyxstrobin (1 l/Ha of a formulated product having 141.4 g azoxystrobin per liter in the form of QUILT® (Syngenta Crop Protection AG) which also contains 122.4 g propiconazole per liter) at BBCH 14, and treatment with trinexapac ethyl (0.6 l/Ha of 250 g/l product) and azoxystrobin (1 l/Ha of 141.4 g/l product) at BBCH 14.
(§3) Best practices were used consistently across the test plots with regard to field conditions such as fertilisation and irrigation and all other measures like weed and insect control. There was no fungal disease pressure. After a growing season of 188 days (29 Apr. 2011 to 3 Nov. 2011), each plot was harvested using a standard harvester. After shelling, the kernels were weighed at 14% moisture and the calculations extrapolated to a ton per hectare yield.
Plots were prepared and treated according to the procedure described in Example 2. The differences were that the location was Niedersachsen, Germany and the variety was DeliTop (NK Seeds). The growing season was 184 days (1 May 2011 to 1 Nov. 2011).

For assay [2], the system named is maize variety Famoso (NK Seeds). As to the kind of experiment: Maize field trial yield, Milano, Italy, 158 days (Example 5). The note with it: treatment at BBCH 14.
Text: as §1, §2, §3
Plots were prepared and treated according to the procedure described in Example 2. The differences were that the location was Milano, Italy and the variety was Famoso (NK Seeds). The growing season was 158 days (15 Apr. 2011 to 20 Sep. 2011).

For assay [3], the system named is maize variety Terada (NK Seeds). As to the kind of experiment: Maize field trial yield, Oise, France (Example 4). Conditions: treatment at BBCH 14, 182 days.
Text: as §1, §2, §3
Plots were prepared and treated according to the procedure described in Example 2. The differences were that the location was Oise, France and the variety was Terada (NK Seeds). The growing season was 182 days (14 Apr. 2011 to 13 Oct. 2011).

For assay [4], the system named is maize hybrid COOLER (NK Seeds). As to the kind of experiment: Maize field trial yield, Valais, Switzerland (Example 2). The note with it: treatment at BBCH 14, 188 days.
Text: as §1, §2, §3

The subject of assay [5] is maize variety Famoso (NK Seeds). As to the kind of experiment: Maize field trial yield, Milano, Italy, 163 days (Example 3). The note with it: treatment at BBCH 14.
Text: as §1, §2, §3
Plots were prepared and treated according to the procedure described in Example 2. The differences were that the location was Milano, Italy and the variety was Famoso (NK Seeds). The growing season was 163 days (18 Apr. 2011 to 28 Sep. 2011).

The test system of assay [6] is maize hybrid (Famoso, NK Seeds). As to the kind of experiment: Maize field plots, kernel yield at conventional and increased plant density (Example 1). The note with it: kernels at 14% moisture. The source says: Plots measuring 25×40 meters were planted with a common maize hybrid (Famoso, NK Seeds). Eight plots were planted according to density strategies considered optimum prior to the disclosure of the present invention: rows were spaced 75 cm apart, allowing for 16 rows per plot which had 19 cm between plants. Another eight plots were planted with maize at increased density: spacing between rows was 45 cm, giving 24 rows per plot with 22 cm between plants. Thus the density was 7 plants/m^2 for conventional density and 10 plants/m^2 for increased density.
In the 8 plots of conventional density two were untreated controls. Three were treated with a foliar application at stage BBCH 14-15; one with trinexapac ethyl, one with azoxystrobin, and one with a mixture of trinexapac and azoyxstrobin. The remaining three were treated with a foliar application at stage BBCH 31-32; one with trinexapac ethyl, one with azoxystrobin, and one with a mixture of trinexapac and azoyxstrobin. The 8 plots planted at increased density were treated at the same stages and with the same agents as for the conventional density plots. Best practices were used consistently across the test plots with regard to field conditions such as fertilisation and irrigation and all other measures like weed and insect control.
At maturity, each plot was harvested using a standard harvester. After shelling, the kernels were weighed at 14% moisture and the calculations extrapolated to a ton per hectare yield.

Where [7] appears, read: plant density 7 plants/m^2, foliar application at BBCH 14-15.
Setting [8] is: plant density 7 plants/m^2, foliar application at BBCH 31-32.
Where [9] appears, read: plant density 10 plants/m^2, foliar application at BBCH 14-15.
Setting [10] is: plant density 10 plants/m^2, foliar application at BBCH 31-32.

`CO/C=C(/C(=O)OC)c1ccccc1Oc1cc(Oc2ccccc2C#N)ncn1` [Azoxystrobin, azoxystrobin]: the Yield in assay [1] (72,000 seeds per hectare) is listed as 11.4 tons/ha; in assay [1] (111,000 seeds per hectare), 11.1 tons/ha; in assay [2] (74,000 seeds per hectare), 14.0 tons/ha; in assay [2] (94,000 seeds per hectare), 15.0 tons/ha; in assay [3] (70,000 seeds per hectare), 11.2 tons/ha; in assay [3] (100,000 seeds per hectare), 13.6 tons/ha. In addition, the Yield in assay [4] (99,000 seeds per hectare) is given as 14.1 tons/ha; in assay [4] (125,000 seeds per hectare), 17.8 tons/ha; in assay [5] (73,000 seeds per hectare), 11.6 tons/ha; in assay [5] (94,000 seeds per hectare), 12.2 tons/ha; in assay [6] (setting [7]), 16.67 tons/ha; in assay [6] (setting [8]), 17.28 tons/ha. For the same molecule, the Yield in assay [6] (setting [9]) is listed as 20.11 tons/ha; in assay [6] (setting [10]), 19.58 tons/ha.

Turning to `CCOC(=O)C1CC(=O)C(=C(O)C2CC2)C(=O)C1` (stereo not shown) [Trinexapac Ethyl, trinexapac ethyl], the Yield in assay [1] (72,000 seeds per hectare) is 11.4 tons/ha; in assay [1] (111,000 seeds per hectare), 11.0 tons/ha; in assay [2] (74,000 seeds per hectare), 13.7 tons/ha; in assay [2] (94,000 seeds per hectare), 14.7 tons/ha; in assay [3] (70,000 seeds per hectare), 10.5 tons/ha; in assay [3] (100,000 seeds per hectare) it was 14.6 tons/ha. Also, the Yield was found to be 14.0 tons/ha in assay [4] (99,000 seeds per hectare); 18.6 tons/ha in assay [4] (125,000 seeds per hectare); 11.3 tons/ha in assay [5] (73,000 seeds per hectare); 12.1 tons/ha in assay [5] (94,000 seeds per hectare); 16.82 tons/ha in assay [6] (setting [7]); 16.70 tons/ha in assay [6] (setting [8]). Moreover, the Yield in assay [6] (setting [9]) is reported as 19.85 tons/ha; in assay [6] (setting [10]) it was 19.41 tons/ha.
